In ChEMBL document CHEMBL5042521, “A Structure-based Design Approach for Generating High Affinity BRD4 D1-Selective Chemical Probes” (J Med Chem, 2022):

Assays:
[1] = biological target: Bromodomain-containing protein 2 (Homo sapiens, UniProt P25440)
Description: Binding affinity to BRD2 D1 (unknown origin) assessed as dissociation constant by isothermal titration calorimetry

[2] = biological target: Bromodomain-containing protein 4 (Homo sapiens, UniProt O60885)
Description: Binding affinity to BRD4 D2 (unknown origin) assessed as dissociation constant by isothermal titration calorimetry

Sequence of Bromodomain-containing protein 2 (P25440 whole entry): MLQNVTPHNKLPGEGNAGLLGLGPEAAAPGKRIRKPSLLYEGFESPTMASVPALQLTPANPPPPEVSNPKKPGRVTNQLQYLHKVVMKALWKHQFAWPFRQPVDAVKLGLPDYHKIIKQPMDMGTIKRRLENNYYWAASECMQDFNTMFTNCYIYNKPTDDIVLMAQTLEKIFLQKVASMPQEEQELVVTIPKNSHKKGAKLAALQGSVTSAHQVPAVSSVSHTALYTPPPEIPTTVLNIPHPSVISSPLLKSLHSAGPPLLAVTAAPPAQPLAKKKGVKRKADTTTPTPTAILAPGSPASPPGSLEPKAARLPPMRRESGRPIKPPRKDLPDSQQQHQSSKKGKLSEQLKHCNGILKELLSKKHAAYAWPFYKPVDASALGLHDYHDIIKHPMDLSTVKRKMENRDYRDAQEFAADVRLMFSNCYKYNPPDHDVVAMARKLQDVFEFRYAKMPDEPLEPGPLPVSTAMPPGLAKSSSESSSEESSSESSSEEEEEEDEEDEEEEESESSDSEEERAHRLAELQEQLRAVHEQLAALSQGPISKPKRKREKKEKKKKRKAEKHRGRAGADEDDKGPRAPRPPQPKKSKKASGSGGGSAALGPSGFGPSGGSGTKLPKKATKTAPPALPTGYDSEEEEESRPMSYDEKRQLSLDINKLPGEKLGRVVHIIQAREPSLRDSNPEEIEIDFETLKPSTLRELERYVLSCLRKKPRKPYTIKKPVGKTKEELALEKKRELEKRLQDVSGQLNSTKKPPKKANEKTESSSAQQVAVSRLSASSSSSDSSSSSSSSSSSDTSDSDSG

SMILES	Kd [1]	Kd [2]
Cc1ccc(C(C)C)cc1Oc1nccc(-c2c(-c3ccc(C(F)(F)F)cc3)ncn2[C@H]2CCN(CCN(C)C)C2)n1	Not Active	Not Active
Cc1ccc(C(C)C)cc1Oc1nccc(-c2c(-c3ccc(C(F)(F)F)cc3)ncn2C2CCN(CCN(C)C)CC2)n1	Not Active	Not Active
